# Test results published in patent US4816447A, “Anti-viral guanine compounds” (priority 1984, dated 1989).
# Key:
# [1] = tested on: Herpes simplex virus type 1 (Strain S); assay: Orofacial Herpes simplex virus type 1 infection in mice, oral treatment (Table XIII); assay type: in vivo, Herpes simplex virus type 1; HRS (hairless) mice; details: for Lesion Incidence (%) / Lesion Incidence (number/Total) / Lesion Severity (scale 0 to 4): 7 days
# Description: Twenty grams HRS (hairless) mice were infected on the abraded orofacial area with Herpes simplex virus type 1 (Strain S). […] At 7 days after initiation of infection, the extent of lesion development in the orofacial area was measured on a scale of 0 (no lesions) to 4 (massive lesions over the entire snout).
# [2] = tested on: Herpes simplex virus type I (HSV-1), strain Schooler; assay: Treatment of Herpes simplex virus infection in mice, repeat experiment (Table III); assay type: in vivo, HSV-1; ICR/Ha mice; details: for Percent Survival: at 15 days
# Description: Twenty gram ICR/Ha mice were injected intraperitoneally (ip) with 0.5 ml of a 10^-5 dilution of a stock preparation of Herpes simplex virus type I (HSV-1), strain Schooler. This virus challenge infected each animal with approximately 100 LD50. […] The placebo group was composed of 45 animals. All compounds were solubilized in physiological saline, pH 11.5.
# [3] = tested on: Herpes simplex virus type 1; assay: Tube dilution assay, viral cytopathology of HSV-1 in rabbit kidney cell cultures; details: Human alphaherpesvirus 1, in Oryctolagus cuniculus, read-out: Minimum Effective Concentration, Strain Schooler
# Recombinant 6-26 = assay: Drug sensitivity of HSV-1/HSV-2 intertypic Recombinant 6-26; details: Recombinant 6-26
# [4] = tested on: Herpes simplex virus type 1; assay: Intraperitoneal Herpes simplex type 1 infection in mice, oral treatment (Table XI); assay type: in vivo, Herpes simplex type 1; ICR/Ha mice; details: for Percent Survival: at 13 days
# Excerpt: ICR/Ha mice were infected as described in Example 36. […] These animals served as toxicity controls.
# [5] = tested on: HSV-1 wild type Strain 17; assay: Drug sensitivity of HSV-1 wild type Strain 17; details: HSV-1 wild type Strain 17
# Recombinant 6-19 = assay: Drug sensitivity of HSV-1/HSV-2 intertypic Recombinant 6-19; details: Recombinant 6-19
# Recombinant 6-34 = assay: Drug sensitivity of HSV-1/HSV-2 intertypic Recombinant 6-34; details: Recombinant 6-34
# Varicella-Zoster virus = assay: Varicella-Zoster plaque reduction assay on human MRC-5 monolayers; assay type: cell-based, Varicella-Zoster (Strain KMcC); human MRC-5 cells
# Excerpt: ^b Plaque reduction assay on human MRC5 cell monolayers.
# [6] = Comparative solubilities in pH 7.2 buffer at 25°; assay type: physicochemical; details: aqueous buffer; pH 7.2 phosphate buffer, 25°
# Description: Comparative Solubilities in pH 7.2 Buffer at 25°
# Solubilities were determined by suspending an excess amount of the compound in approximately 0.15 molar phosphate buffer (pH 7.2) and shaking overnight in a water bath at 25° to give a saturated solution. The concentration of the compound in the filtered solution was calculated on the basis of spectrophotometric measurements, i.e. comparison of the ultraviolet absorbance at the λmax for the saturated solution with the absorbance value observed for a known concentration of the compound.
# [7] = tested on: human cytomegalovirus, strain AD169; assay: Plaque inhibition, cytomegalovirus on MRC5 cells (Table V); assay type: cell-based, human cytomegalovirus; MRC5 (human diploid lung) cells; details: Human betaherpesvirus 5, AD169, MRC5, read-out: ED50, concentration required for 50% plaque inhibition
# [8] = tested on: Varicella-Zoster virus, strain KMcC; assay: Plaque inhibition, Varicella Zoster virus on MRC5 cells (Table V); assay type: cell-based, Varicella-Zoster virus; MRC5 (human diploid lung) cells; details: Human alphaherpesvirus 3, MRC5, read-out: ED50, concentration required for 50% plaque inhibition
# Herpes simplex virus = assay: Plaque inhibition, Herpes simplex virus on MRC5 cells (Table V); assay type: cell-based, Herpes simplex virus; MRC5 (human diploid lung) cells; details: MRC5, read-out: ED50, concentration required for 50% plaque inhibition
# Vaccinia = assay: microbe, parasite or virus in culture; assay type: cell-based, vaccinia; MRC5 (human diploid lung) cells; details: Orthopoxvirus vaccinia, MRC5, read-out: ED50, concentration required for 50% plaque inhibition
# Recombinant 6-30 = assay: Drug sensitivity of HSV-1/HSV-2 intertypic Recombinant 6-30; details: Recombinant 6-30
smiles,measurement,setting,value
"Nc1nc2c(ncn2COCCO)c(=O)[nH]1 [Acycloguanosine, 9-(2-hydroxyethoxymethyl)guanine, reference compound]",Lesion Incidence (%),[1]; 0.8 mg/kg/day oral,88%
same,Lesion Incidence (number/Total),[1]; 0.8 mg/kg/day oral,7/8
same,Lesion Severity (scale 0 to 4),[1]; 0.8 mg/kg/day oral,3.11
same,Lesion Incidence (%),[1]; 3.1 mg/kg/day oral,100%
same,Lesion Incidence (number/Total),[1]; 3.1 mg/kg/day oral,6/6
same,Lesion Severity (scale 0 to 4),[1]; 3.1 mg/kg/day oral,3.25
same,Lesion Incidence (%),[1]; 12.5 mg/kg/day oral,100%
same,Lesion Incidence (number/Total),[1]; 12.5 mg/kg/day oral,6/6
same,Lesion Severity (scale 0 to 4),[1]; 12.5 mg/kg/day oral,2.67
same,Lesion Incidence (%),[1]; 50 mg/kg/day oral,14%
same,Lesion Incidence (number/Total),[1]; 50 mg/kg/day oral,1/7
same,incidence of lesions vs placebo,[1]; only at 50 mg/kg,statistically significant protection
same,extent of lesion development vs placebo,[1]; only at 50 and 12.5 mg/kg,statistically significant protection
same,Sensitivity (S) or Resistance (R),HSV-2 TS6; HSV-2 TS6,S
same,sensitivity of HSV-2 Ts6,HSV-2 TS6; HSV-2 Ts6,sensitive
same,Avg. Survival Time,[2]; 12.5 mg/kg/day s.c.,7.0 days
same,Percent Survival,[2]; 12.5 mg/kg/day s.c.,6%
same,Avg. Survival Time,[2]; 50 mg/kg/day s.c.,7.8 days
same,Percent Survival,[2]; 50 mg/kg/day s.c.,0%
same,Avg. Survival Time,[2]; 100 mg/kg/day s.c.,7.8 days
same,Percent Survival,[2]; 100 mg/kg/day s.c.,10%
same,minimal effective concentration,[3],1 to 3 µg/mL
same,Sensitivity (S) or Resistance (R),Recombinant 6-26,S
same,Avg. Survival Time,[4]; 3.1 mg/kg/day oral,6.3 days
same,Percent Survival,[4]; 3.1 mg/kg/day oral,0%
same,Avg. Survival Time,[4]; 12.5 mg/kg/day oral,6.6 days
same,Percent Survival,[4]; 12.5 mg/kg/day oral,0%
same,Avg. Survival Time,[4]; 50 mg/kg/day oral,8.2 days
same,Percent Survival,[4]; 50 mg/kg/day oral,20%
same,Avg. Survival Time,[4]; 100 mg/kg/day oral,11.4 days
same,Percent Survival,[4]; 100 mg/kg/day oral,60%
same,survival vs placebo,[4]; all treated groups,none of the acycloquanosine-treated groups showed enhanced survival
same,extension of survival time vs placebo,[4]; only at 100 and 50 mg/kg daily,statistically significant extension of survival time
same,Sensitivity (S) or Resistance (R),[5],S
same,Sensitivity (S) or Resistance (R),Recombinant 6-19,R
same,Sensitivity (S) or Resistance (R),Recombinant 6-34,R
same,minimal effective concentration,"Varicella-Zoster virus; Human alphaherpesvirus 3, MRC5, Strain KMcC, plaque reduction, read-out: Minimum Effective Concentration",1 to 2 µg/mL
same,comparative activity,Varicella-Zoster virus; compound of formula II vs acycloguanosine,equally active
same,solubility,[6],1300 to 1500 µg/mL
same,EC50,[7],25 µg/mL
same,EC50,[8],3 to 6 µg/mL
same,EC50,Herpes simplex virus,0.2 to 0.4 µg/mL
same,EC50,Vaccinia,> 100 µg/mL
same,Sensitivity (S) or Resistance (R),Recombinant 6-30,S
